Source: patent US10278957B2, “Opioid agonist peptides and uses thereof” (Protagonist Therapeutics, Inc., priority 2017, dated 2019)
pEC50: −log10 of the molar value. Square brackets hold non-standard residues; d marks the D form. Peptide text beside a SMILES is read from it. Dmt = Cc1cc(O)cc(C)c1C[C@H](N)C(=O)O; β3hF = N[C@H](CC(=O)O)Cc1ccccc1; Sar = CNCC(=O)O

Assays:
μ-opioid receptor (MOR) = molecular target: T1, μ-opioid receptor (MOR) (Homo sapiens, UniProt P35372); assay: MOR agonist cAMP assay (HitHunter cAMP, forskolin-stimulated); assay type: cell-based
T1 construct: host or cells: cAMP Hunter CHO-K1 OPRM1 Gαi cell line
Summary of the method: (§1)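 CHO-K1 Gαi cells expressing OPRM1 or OPRD1 were exposed 30 min at 37° C to 11-point threefold agonist dilutions, in duplicate, with 20 uM forskolin final. cAMP quantified by EFC chemiluminescent competitive immunoassay against cAMP standards. EC50 by four-parameter Hill nonlinear regression.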

δ-opioid receptor (DOR) = molecular target: T2, δ-opioid receptor (DOR) (Homo sapiens, UniProt P41143); assay: DOR agonist cAMP assay (HitHunter cAMP, forskolin-stimulated); assay type: cell-based
T2 construct: host or cells: cAMP Hunter CHO-K1 OPRD1 Gαi cell line
Summary of the method: as §1

[1] = SGF assay (stability in simulated gastric fluid); assay type: in vitro ADME; conditions: pig, simulated gastric fluid (SGF) with porcine pepsin, pH 2, pepsin, 37° C.
Method: SGF was prepared by adding 20 mg NaCl, 32 mg porcine pepsin (MP Biochemicals, catalog 02102599), and 70 μl HCl to 10 ml water (final pH=2). Aliquots of SGF (0.5 ml each) were pre-warmed at 37° C. To start the reaction, 1 μl of opioid agonist peptide stock solution (10 mM in DMSO) was added to 0.5 ml SGF and thoroughly mixed such that the final peptide concentration was 20 μM. The reactions were incubated at 37° C. with gentle shaking.
At each timepoint (0, 15, 30, 60 min) 50 µl aliquots were removed and added to 200 ul of acetonitrile containing 0.1% formic acid to quench the reaction. Samples were stored at 4° C. until the end of the experiment and centrifuged at 10,000 rpm for 5 minutes. Aliquots of the supernatant were removed, diluted 1:1 into distilled water containing internal standard, and analyzed by LCMS/MS. The percent of the opioid agonist peptide remaining at each timepoint was calculated based on the peak area response ratio of the opioid agonist peptide to the internal standard. Time 0 was set to 100%, and all later timepoints were calculated relative to time 0. Half-lives were calculated by fitting to a first-order exponential decay equation using GraphPad.

[2] = SIF assay (stability in simulated intestinal fluid); assay type: in vitro ADME; conditions: for half-life at 20 μM: simulated intestinal fluid (SIF) with pancreatin, simulated intestinal fluid, pH 6.8, pancreatin, 37° C.
Method: SIF was prepared by adding 6.8 g of monobasic potassium phosphate and 10.0 g of pancreatin to 1.0 L of water. After dissolution, the pH was adjusted to 6.8 using NaOH. DMSO stocks (2 mM) were prepared for each of the opioid agonist peptides. Aliquots of the DMSO solutions were dosed into […], each containing 0.5 mL of SIF, which was pre-warmed to 37° C. The final opioid agonist peptide concentration was 20 μM. The vials were kept in a benchtop Thermomixer® for the duration of the experiment. At each timepoint (0, 5, 10, 20, 40, 60, or 360 minutes or 24 hours), 1.0 mL of acetonitrile containing 1% formic acid was added to one vial to terminate the reaction. Samples were stored at 4° C. until the end of the experiment. After the final timepoint was sampled, the tubes were mixed and then centrifuged at 3,000 rpm for 10 minutes. Aliquots of the supernatant were removed, diluted 1:1 into distilled water containing an internal standard, and analyzed by LCMS/MS. The percent of the opioid agonist peptide remaining at each timepoint was calculated based on the peak area response ratio of opioid agonist peptide to the internal standard. Time 0 was set to 100%, and all later timepoints were calculated relative to time 0. Half-lives were calculated by fitting to a first-order exponential decay equation using Graph pad.

[3] = tested on: gastro intestinal motility; assay: Gastro Intestinal Motility Charcoal Transit Assay; assay type: in vivo; conditions: Table 4; orally dosed; charcoal transit
Method: Animals were treated with 0.2 mL croton oil 96 and 72 hours before the gastro intestinal transit (GIT) assay. Animals were fasted overnight prior to charcoal meal dosing. Test and control articles were administered (PO, IP) followed by an oral dose of aqueous suspension of 5% charcoal in 10% gum arabic. […] Charcoal meal test were given 30 min post-test article dose. Twenty minutes after administration of the charcoal test meal, animals were euthanized via CO2 inhalation followed by cervical dislocation, and the small and large intestines were examined to evaluate GI transit and motility. GI transit is expressed as a percentage of the distance traveled by the charcoal test meal divided by the length of the intestine.

T2 sequence (P41143 whole entry): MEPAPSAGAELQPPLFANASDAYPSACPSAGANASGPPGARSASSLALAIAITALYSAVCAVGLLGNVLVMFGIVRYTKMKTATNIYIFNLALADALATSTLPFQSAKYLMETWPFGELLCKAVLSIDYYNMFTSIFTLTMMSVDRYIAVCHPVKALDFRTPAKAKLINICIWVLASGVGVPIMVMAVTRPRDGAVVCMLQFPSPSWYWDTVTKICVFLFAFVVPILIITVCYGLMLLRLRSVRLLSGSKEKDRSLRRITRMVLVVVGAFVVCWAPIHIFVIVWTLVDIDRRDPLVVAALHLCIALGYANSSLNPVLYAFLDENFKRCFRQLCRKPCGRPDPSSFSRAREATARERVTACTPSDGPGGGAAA
T1 sequence (P35372 whole entry): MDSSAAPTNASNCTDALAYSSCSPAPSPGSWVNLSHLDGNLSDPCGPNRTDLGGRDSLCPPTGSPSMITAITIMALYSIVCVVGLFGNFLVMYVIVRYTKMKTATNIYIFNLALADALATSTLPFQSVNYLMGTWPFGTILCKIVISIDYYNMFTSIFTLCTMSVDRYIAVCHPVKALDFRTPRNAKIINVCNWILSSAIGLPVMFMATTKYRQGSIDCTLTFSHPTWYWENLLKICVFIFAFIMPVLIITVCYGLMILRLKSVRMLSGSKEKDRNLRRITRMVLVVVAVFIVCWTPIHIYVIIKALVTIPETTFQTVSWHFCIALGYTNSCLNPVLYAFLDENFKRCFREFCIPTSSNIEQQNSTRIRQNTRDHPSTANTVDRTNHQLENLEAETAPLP

Compound | pEC50 (μ-opioid receptor (MOR)) | pEC50 (δ-opioid receptor (DOR)) | half-life at 20 μM [1] | half-life at 20 μM [2] | Ratio (MOR EC50/DOR EC50) (μ-opioid receptor (MOR); Table 4, MOR EC50 divided by DOR EC50) | SIF (min) ([2]; Table 4, SIF half-life) | % inhibition of GI motility [3]
Cc1cc(C(N)=O)cc(C)c1C[C@H](N)C(=O)N[C@H](C)C(=O)NCC(=O)N[C@H](CC(=O)N(C)[C@H](C(=O)O)C(C)C)Cc1ccccc1 [compound 96] | > 9.00 | > 9.00 | > 24 h | > 24 h |  |  | 
Cc1cc(C(N)=O)cc(C)c1C[C@H](N)C(=O)N[C@H](C)C(=O)NCC(=O)N[C@H](CC(=O)N(C)[C@@H](Cc1ccc(O)cc1)C(=O)O)Cc1ccccc1 [compound 102] | > 9.00 | > 9.00 | > 24 h | > 24 h |  |  | 
Cc1cc(O)cc(C)c1C[C@H](N)C(=O)N[C@H](C)C(=O)NC(C)(C)C(=O)N[C@H](CC(=O)N(C)CC(N)=O)Cc1ccccc1 [compound 72] | > 9.00 | > 9.00 | 0.167 to 6 h | > 24 h |  |  | 
Cc1cc(O)cc(C)c1C[C@H](N)C(=O)N[C@H](C)C(=O)N[C@@H](C)C(=O)N[C@H](CC(=O)N(C)CC(N)=O)Cc1ccccc1 [Seq. ID 66, DMT-(D)Ala-Ala-(b-homoPhe)-Sar-NH2] (H-[Dmt][dA]A[β3hF][Sar]-NH2) |  |  |  |  | * (for ratio, * indicates between 0.1 and 0.3) | **** (for SIF half-life values, **** indicates >1290) | * (for % inhibition of GI motility, * indicates between 30% and 50%)
Cc1cc(O)cc(C)c1C[C@H](N)C(=O)N[C@H](C)C(=O)NCC(=O)N[C@H](CC(=O)N(C)[C@@H](C)C(=O)O)Cc1ccccc1 [compound 111] | > 9.00 | > 9.00 | > 24 h | > 24 h |  |  | 
CCCC[C@@H](C(=O)O)N(C)C(=O)C[C@H](Cc1ccc(F)cc1)NC(=O)CNC(=O)[C@@H](C)NC(=O)[C@@H](N)Cc1c(C)cc(C(N)=O)cc1C [compound 166] | > 9.00 | > 9.00 | > 24 h | > 24 h |  |  | 
Cc1cc(O)cc(C)c1C[C@H](N)C(=O)N[C@H](C)C(=O)NCC(=O)N[C@H](CC(=O)N(CC(N)=O)Cc1ccccc1)Cc1ccccc1 [compound 118] | > 9.00 | > 9.00 | > 24 h | > 24 h |  |  | 
Cc1cc(C(N)=O)cc(C)c1C[C@H](N)C(=O)N[C@H](C)C(=O)NCC(=O)N[C@H](CC(=O)N(C)[C@H](C(=O)O)c1ccccc1)Cc1ccccc1 [compound 99] | > 9.00 | > 9.00 | > 24 h | > 24 h |  |  | 
Cc1cc(O)cc(C)c1C[C@H](N)C(=O)N[C@H](CC(=O)O)C(=O)NCC(=O)N[C@H](CC(=O)NCC(N)=O)Cc1ccccc1 [compound 179] (H-[Dmt][dD]G[β3hF]G-NH2) | > 9.00 | > 9.00 | > 24 h | > 24 h |  |  | 
Cc1cc(O)cc(C)c1C[C@H](N)C(=O)N[C@@H](C(=O)NCC(=O)N[C@H](CC(=O)N(C)CC(N)=O)Cc1ccccc1)[C@H](C)O [compound 82] | > 9.00 | > 9.00 | > 24 h | > 24 h |  |  | 
Cc1cc(O)cc(C)c1C[C@H](N)C(=O)N[C@H](C)C(=O)NCC(=O)N[C@H](CC(=O)N(C)[C@H](C(=O)O)C(C)C)Cc1ccccc1 [compound 161] | > 9.00 | > 9.00 | > 24 h | > 24 h |  |  | 
Cc1cc(C(N)=O)cc(C)c1C[C@H](N)C(=O)N[C@H](Cc1ccc(O)cc1)C(=O)NCC(=O)N[C@H](CC(=O)N(C)CC(N)=O)Cc1ccccc1 [compound 85] | > 9.00 | > 9.00 | 6 to 24 h | > 24 h |  |  | 
